The text below walks through data of patent US20090118471A1, “NOVEL COUMARIN DERIVATIVES” (The University of Tokyo, priority 2006, published 2009).

Structures are written as SMILES. Where a name gives a salt, the structure may show the parent alone.

The nature of data set [1]: Fluorescence intensity after reaction with peptides containing two neighboring cysteine residues. Type of data set: physicochemical. As to conditions: 5 μmol/L; after reaction with peptides containing two neighboring cysteine residues in the same molecule; sodium phosphate buffer pH 7.4, 0.5% DMSO. Here is the method: (§1) Compound 8 at a concentration of 5 μmol/L was added with N-acetylcysteine (NAC), Ac-AECACRA-OH peptide, or Ac-AECAACRA-OH peptide (C-terminus is carboxyl group, N-terminus is acetyl group (Ac), and amino acids are represented by the single letter codes), and fluorescence intensity was measured. For the reaction mixture, a 100 mmol/L sodium phosphate buffer (pH=7.4, containing 0.5% dimethyl sulfoxide as a cosolvent) was used.

Data set [2] can be described thus: Fluorescence intensity after reaction with N-acetylcysteine. The data set is classed as physicochemical. The note with it: 5 μmol/L; after reaction with one molecule of cysteine (NAC); sodium phosphate buffer pH 7.4, 0.5% DMSO. On the procedure: as §1
The conditions of data set [3]: in 0.1 mol/L sulfuric acid solution; value taken as standard; cited from earlier work.

As to `O=C(Cc1cc(=O)oc2cc(O)ccc12)NC1CC(N2C(=O)C=CC2=O)CC(N2C(=O)C=CC2=O)C1` (stereo not drawn) [Compound 8], the Fluorescence entry in data set [1] is recorded as “intensely fluorescent adducts”; in data set [2] it was “substantially non-fluorescent”.
Consider `C=C[C@H]1C[N@@]2CC[C@H]1C[C@H]2[C@H](O)c1ccnc2ccc(OC)cc12` [quinine sulfate], for which the “Fluorescence quantum yield (reference standard)” value in data set [3] is on record as 0.577.
